{
  "source": "paper PMC10780823",
  "about": "“Innovative Approach to Enhance Bioavailability of Birch Bark Extracts: Novel Method of Oleogel Development Contrasted with Other Dispersed Systems” (Plants, 2024)",
  "key": {"[1]": {"test": "Content of BBE compounds in rat tissues after repeated peroral oleogel administration", "conditions": "for Content in heart, liver, kidney, brain tissues: oleogel half dose daily 7 days, 24 h after last administration, level of quantification 50 ng/g"}, "[2]": {"test": "Betulin, lupeol and betulinic acid in rat blood plasma after peroral administration of BBE dispersed systems (LC/MS/MS)"}, "[3]": {"conditions": "oral in olive oil, 200 mg/kg, mice; cited from earlier work"}, "[4]": {"conditions": "male, Wistar, rat, in vivo"}, "[5]": {"test": "Pozharitskaya study: betulin in blood plasma after endotracheal administration", "format": "in vivo, rat", "conditions": "cross-study comparison"}, "[6]": {"set-up": "method as in PMID 27155877", "conditions": "endotracheal route; nanoparticles 25.2 mg/kg; cited from earlier work"}, "[7]": {"test": "Oxidative stability (Oxipres, high-pressure oxygen bomb method)", "format": "physicochemical", "conditions": "antioxidants 0.33%", "procedure": "Due to their high oil content, oleogels are characterized by instability in an oxygen environment, so at the beginning of the study, an oxidative stability test of the oleogel was performed, which was compared with a pure sunflower oil sample and an oil sample containing TBHQ (tertiary butylhydroquinone).\nTo determine the oxidative stability, the oleogel was compared with a sunflower oil alone (blank sample) and a sample of sunflower oil with the addition of TBHQ (tertiary butylhydroquinone), which is widely used as an effective food antioxidant. TBHQ was added to the oil at a concentration equivalent to the concentration of polyphenols in the oleogel—0.33% (determined in previous studies).\nAn Oxipres ML 3,047,312 machine (Mikrolab Aarhus, Aarhus, Denmark) was used to determine oxidative stability. This equipment is a modification of the high-pressure oxygen bomb method (by standard ASTM D942), the principle of which is to oxidize substrates with oxygen. Enough sample was weighed into glass containers to contain 5 g of substrate. […] The protection factor (PF) is calculated according to the formula PF = […], where IPx is the induction period for the sample with antioxidant additives, hours; IPk is the induction period for the sample without antioxidant additives or the “blank sample”, hours. Using that formula, the oxidative stability was determined and compared among samples."}, "[8]": {"conditions": "oleogel half dose daily for 7 days"}},
  "note": "“Also recorded” adds a separate entry of the source.",
  "data": [
    {"smiles": "C=C(C)[C@@H]1CC[C@]2(CO)CC[C@]3(C)[C@H](CC[C@@H]4[C@@]5(C)CC[C@H](O)C(C)(C)[C@@H]5CC[C@]43C)[C@@H]12", "note": "[betulin]", "values": [
      {"measurement": "Content in heart, liver, kidney, brain tissues", "setting": "[1]", "value": "not detected; also recorded: not found"}
    ]},
    {"smiles": "C=C(C)[C@@H]1CC[C@]2(C(=O)O)CC[C@]3(C)[C@H](CC[C@@H]4[C@@]5(C)CC[C@H](O)C(C)(C)[C@@H]5CC[C@]43C)[C@@H]12", "note": "[betulinic acid]", "values": [
      {"measurement": "Content in heart, liver, kidney, brain tissues", "setting": "[1]", "value": "not detected; also recorded: not found"}
    ]},
    {"smiles": "C=C(C)[C@@H]1CC[C@]2(C)CC[C@]3(C)[C@H](CC[C@@H]4[C@@]5(C)CC[C@H](O)C(C)(C)[C@@H]5CC[C@]43C)[C@@H]12", "note": "[lupeol]", "values": [
      {"measurement": "Lupeol bioavailability from the oleogel, times better than betulin bioavailability", "setting": "[2]; considering the lower dose of lupeol", "value": 20, "unit": "times"},
      {"measurement": "Lupeol exposure, times higher than betulin exposure", "setting": "[2]; peroral BBE systems", "value": "about 3 times"},
      {"measurement": "Lupeol concentration in blood plasma", "setting": "[3]", "value": 6, "unit": "ng/µL"},
      {"measurement": "Lupeol content in brain", "setting": "[1]; [8]", "value": "not found"},
      {"measurement": "Lupeol content in kidneys", "setting": "[1]; [8]", "value": "about 250 ng/g tissue"},
      {"measurement": "Lupeol content in liver", "setting": "[1]; [8]", "value": "about 21 ng/g tissue"},
      {"measurement": "Lupeol content in heart", "setting": "[4]", "value": "about 250 ng/g tissue"}
    ]},
    {"smiles": "C=C(C)[C@@H]1CC[C@]2(CO)CC[C@]3(C)[C@H](CC[C@@H]4[C@@]5(C)CC[C@H](O)C(C)(C)[C@@H]5CC[C@]43C)[C@@H]12", "note": "[betulin powder]", "values": [
      {"measurement": "Plasma level, times higher than aqueous suspension of BBE powder in this study", "setting": "[5]", "value": "~1000", "unit": "times"},
      {"measurement": "Betulin in blood plasma", "setting": "[6]", "value": 6.9, "unit": "µg/mL"}
    ]},
    {"smiles": "CC(C)(C)c1cc(O)ccc1O", "note": "[TBHQ in oil, tertiary butylhydroquinone]", "values": [
      {"measurement": "Induction period", "setting": "[7]; oxygen 8–8.5 bar, 120 °C", "value": 3.5, "unit": "h"},
      {"measurement": "Protection factor", "setting": "[7]; vs blank sunflower oil", "value": 2.7}
    ]}
  ]
}
